The text below walks through data of patent publication US5948782A, “Pharmaceutical composition containing quinoline and quinazoline derivatives and novel compounds therefor” (Takeda Chemical, priority 1992, dated 1999).

The subject of one data set is Rat Adjuvant Arthritis. As to the kind of experiment: Effects on Rat Adjuvant Arthritis. It is filed as in vivo. The note with it: 336 h, Lewis rats, 50 mg/kg once a day for 14 days; for change in vivo at 50 mg/kg: based on drug-unadministered rats, read-out: Increase rate of body weight (%); for inhibition in vivo at 50 mg/kg: left hind leg, 14th day, read-out: Swelling inhibitory rate (%).

Data set [1] concerns Rat Carrageenin Paw Edema. The data set can be described thus: Rat Carrageenin Paw Edema Inhibitory Activity. In kind it is in vivo. The note with it: Jcl:SD rats, 50 mg/kg orally, 3 hours after carrageenin. As for the experimental part: Rat Carrageenin Paw Edema Inhibitory Activity
The volume of a planter part of a right hind leg of Jcl:SD rats (male, 6 weeks old) was measured, and then suspension of a test drug (50 mg/kg) in 5% acacia was administered orally. Then water was administered additionally so that the total amount of administered liquid became 5 ml/rat. After 1 hour, a suspension (0.05 ml) containing 1% carrageenin in physiological saline was injected intradermally into the plantar to induce swelling [Winter, C. A. et al; Proc. Soc. Exp. Biol. Med., 111, 544 (1962)]. The volume of the right hind leg was measured again 3 hours after the carrageenin injection, and swelling inhibitory rate was calculated from the difference in the volumes before and after the injection.
(Carrageenan injected into the paw causes an acute inflammation.)

For data set [2], the system named is mouse phenylquinone writhing. The data set can be described thus: Analgesic Activity in Mice (phenylquinone writhing model). In kind it is in vivo. As to conditions: Slc:ICR mice, 50 mg/kg orally, 20 minutes. As for the experimental part:
Analgesic Activity in Mice
A drug (50 mg/kg) suspended in 5% acacia was administered orally to Slc:ICR mice (male, 4 weeks old). After 30 minutes, a 0.02% phenylquinone solution (0.1 ml/[…]) in 5% ethanol was administered intraperitoneally. Writhing and stretching reactions for 20 minutes after the injection were calculated for each mouse to evaluate analgesic activity of the test drug [Siegmund, E. et al.; Proc. Soc. Exp. Biol. Med., 95, 729 (1957)].
In general terms: Writhing tests count abdominal constrictions after an irritant is injected.

The subject of a further data set is IL-1β. As to the kind of experiment: Anti-IL-1 activity (extracellular substrates of rat cartilage cells). In kind it is cell-based. As to conditions: 72 h, IL-1β 0.2 ng/ml, 3 days, read-out: IL-1 inhibitory activity (%). As for the experimental part: Rat cartilage cells were prepared according to the known method [Fujio Suzuki et al., Sin Seikagaku Jikken Kohza, 18, p.871-875 (1990)] and cultivated in Dulbecco's Medium containing 10% fetal bovine serum. After 8 days, various concentrations of a test drug and IL-1β (0.2 ng/ml) were added, and the cells were cultivated for additional 3 days. The amount of extracellular substrates thus produced was determined.
Although IL-1β inhibits the synthesis of extracellular substrates of cartilage cells, addition of the drug inhibits the IL-1 activity and the amount of extracellular substrates synthesized was recovered.

The test system of data set [3] is Antigen-responsive T cell. As to the kind of experiment: Antigen-Responsive T Cell Growth Inhibitory Activity (PPD-stimulated 3H-Tdr incorporation). In kind it is cell-based, Lewis rats. As to conditions: PPD 2 μg/ml, Lewis rat T cells, read-out: Antigen-responsive T cell growth inhibitory rate (%). The method, then: Antigen-Responsive T Cell Growth Inhibitory Activity
According to the method of Test Example 1, adjuvant arthritis was induced in Lewis rats (male, 7 weeks old). After 14 days, lymphonodi inguinales were excised. Then, a single-cell suspension was prepared by using RPMI-1640 medium containing 5% fetal bovine serum and then incubated at 37° C. for 1 hour in a nylon wool column. The cells were eluted from the column with the same medium. The non-adsorptive cell-fraction was used as T cells.
On the other hand, spleen cells were taken out from unsensitized Lewis rats (male, 8 to 9 weeks old) and irradiated with soft X-rays (20,000 R). To the spleen cells (1×10^5 cells/well) were added the above T cells (5×10^5 cells/well), PPD (Purified Protein Derivatives; final concentration: 2 μg/ml) and 2% Lewis rat serum (treated at 56° C. for 30 minutes). The mixture was incubated at 37° C. for 72 hours in a 5% carbonic acid incubator. Further, ^3 H-Tdr (0.5 μCi/well) was added followed by incubation for 24 hours. The cells were recovered, and the radioactivity of ^3 H-Tdr incorporated into the cells was determined. The test drug was added to the cell suspension just before the addition of PPD, and effects on incorporation of ^3 H-Tdr into the cells were observed.

Another data set has as its system mice. As to the kind of experiment: Oral toxicity in mice. It is filed as in vivo. The note with it: 300 mg/kg administered orally to mice. The method, then:
The compounds of the present invention have low toxicity. For example, when 300 mg/kg of the compounds prepared in Examples 36, 45, 47, 54 and 64 were administered orally to mice, no mice died. Therefore, the compounds of the present invention are useful as an anti-inflammatory agent, particularly an agent for treating arthritis producing inflammatory symptoms, in humans and other mammals.

`CCOC(=O)c1c(C[S+]([O-])c2nccn2C)nc2cc(OC)c(OC)cc2c1-c1ccc(OC)c(OC)c1` (stereo not shown) [Example 2, ethyl 6,7-dimethoxy-4-(3,4-dimethoxyphenyl)-2-[(1-methylimidazol-2-yl)sulfinylmethyl]quinoline-3-carboxylate]: in the data set with Rat Adjuvant Arthritis, the change in vivo at 50 mg/kg came to 39% and the inhibition in vivo at 50 mg/kg came out at 73%.

Turning to `CCOC(=O)c1c(C[S+]([O-])c2nc3ccccc3[nH]2)nc2cc(OC)c(OC)cc2c1-c1ccc(OC)c(OC)c1` (stereo not shown) [Example 3, ethyl 2-[(2-benzimidazolyl)sulfinylmethyl]-6,7-dimethoxy-4-(3,4-dimethoxyphenyl)quinoline-3-carboxylate], the “Swelling inhibitory rate (%)” value in data set [1] turned out to be 23%.

For the molecule `CCOC(=O)c1c(CSc2nc3ccccc3[nH]2)nc2cc(OC)c(OC)cc2c1-c1ccc(OC)cc1` [Example 27, ethyl 6,7-dimethoxy-4-(4-methoxyphenyl)-2-[(benzimidazol-2-yl)thiomethyl]quinoline-3-carboxylate], the “Inhibitory rate (%)” value in data set [2] was determined as 39%.

Turning to `CCOC(=O)c1c(CSc2nccn2C)nc2cc(OC)c(OC)cc2c1-c1ccc(OC)cc1` [Example 28, ethyl 6,7-dimethoxy-4-(4-methoxyphenyl)-2-[(1-methylimidazol-2-yl)thiomethyl]quinoline-3-carboxylate], in data set [2], the “Inhibitory rate (%)” value was determined as 43%. Also, in the data set with IL-1β, the inhibition at 1 µM was 34% and the inhibition at 10 µM is 44%.

Consider `CCOC(=O)c1c(CSc2nccn2C)nc2cc(OC)c(OC)cc2c1-c1ccc(C)cc1` [Example 33, ethyl 6,7-dimethoxy-4-(4-methylphenyl)-2-[(1-methylimidazol-2-yl)thiomethyl]quinoline-3-carboxylate], for which, in the data set with Rat Adjuvant Arthritis, the change in vivo at 50 mg/kg came out at 12% and the inhibition in vivo at 50 mg/kg was 67%.

On to `CCOC(=O)c1c(CSc2nncn2C)nc2cc(OC)c(OC)cc2c1-c1ccc(OC)c(OC)c1` [Example 35, ethyl 6,7-dimethoxy-4-(3,4-dimethoxyphenyl)-2-[(4-methyl-1,2,4-triazol-3-yl)thiomethyl]quinoline-3-carboxylate], for which, in the data set with Rat Adjuvant Arthritis, the change in vivo at 50 mg/kg is 11% and the inhibition in vivo at 50 mg/kg stood at 64%.

Regarding `CCOC(=O)c1c(CSc2nccn2C)nc2cc(OC)c(OC)cc2c1-c1ccc(OC)c(OC)c1` [Example 36, ethyl 6,7-dimethoxy-4-(3,4-dimethoxyphenyl)-2-[(1-methylimidazol-2-yl)thiomethyl]quinoline-3-carboxylate], in the data set with Rat Adjuvant Arthritis, the change in vivo at 50 mg/kg came out at 30% and the inhibition in vivo at 50 mg/kg is 48%. In data set [2], the “Inhibitory rate (%)” value is on record as 59%. For the same molecule, in the data set with IL-1β, the inhibition at 1 µM worked out at 22% and the inhibition at 10 µM was determined as 48%. Further, in data set [3], the inhibition at 1 µM came out at 33% and the inhibition at 10 µM stood at 79%. Besides, in the data set with mice, the mortality result is on record as “no mice died”.

Consider `CCOC(=O)c1c(CSCc2ccc(Cl)cc2)nc2cc(OC)c(OC)cc2c1-c1ccc(OC)c(OC)c1` [Example 41, ethyl 6,7-dimethoxy-4-(3,4-dimethoxyphenyl)-2-[(4-chlorophenyl)methylthiomethyl]quinoline-3-carboxylate], for which, in the data set with IL-1β, the inhibition at 1 µM amounted to 17% and the inhibition at 10 µM turned out to be 50%.

Regarding `CCOC(=O)c1c(CSc2ccc(Cl)cc2)nc2cc(OC)c(OC)cc2c1-c1ccc(OC)c(OC)c1` [Example 42, ethyl 6,7-dimethoxy-4-(3,4-dimethoxyphenyl)-2-[(4-chlorophenyl)thiomethyl]quinoline-3-carboxylate], in data set [2], the “Inhibitory rate (%)” value is reported as 47%.

On to `CCOC(=O)c1c(CSc2nccc(=O)[nH]2)nc2cc(OC)c(OC)cc2c1-c1ccc(OC)c(OC)c1` [Example 45, ethyl 6,7-dimethoxy-4-(3,4-dimethoxyphenyl)-2-[(6(1H)-pyrimidon-2-yl)thiomethyl]quinoline-3-carboxylate], for which, in data set [3], the inhibition at 1 µM was found to be 36% and the inhibition at 10 µM came to 70%. Moreover, the mortality entry in the data set on mice is on record as “no mice died”.

As for `CCOC(=O)c1c(CSc2ncccc2O)nc2cc(OC)c(OC)cc2c1-c1ccc(OC)c(OC)c1` [Example 46, ethyl 6,7-dimethoxy-4-(3,4-dimethoxyphenyl)-2-[(3-hydroxypyridin-2-yl)thiomethyl]quinoline-3-carboxylate], in data set [3], the inhibition at 1 µM came out at 39% and the inhibition at 10 µM stood at 92%.

As for `CCOC(=O)c1c(CSC2=NCCS2)nc2cc(OC)c(OC)cc2c1-c1ccc(OC)c(OC)c1` [Example 47, ethyl 6,7-dimethoxy-4-(3,4-dimethoxyphenyl)-2-[(2-thiazolin-2-yl)thiomethyl]quinoline-3-carboxylate], in data set [3], the inhibition at 1 µM was found to be 61% and the inhibition at 10 µM stood at 93%. Besides, the mortality entry in the data set with mice was “no mice died”.

As to `CCOC(=O)c1c(CSc2nc3ccccc3[nH]2)nc2cc(OC)c(OC)cc2c1-c1ccc(OC)c(OC)c1` [Example 53, ethyl 6,7-dimethoxy-4-(3,4-dimethoxyphenyl)-2-[(benzimidazol-2-yl)thiomethyl]quinoline-3-carboxylate], in the data set with IL-1β, the inhibition at 1 µM worked out at 39% and the inhibition at 10 µM stood at 71%. Further, in data set [3], the inhibition at 1 µM is 51% and the inhibition at 10 µM came to 91%.

On to `CCOC(=O)c1c(CSc2nnc3ccccn23)nc2cc(OC)c(OC)cc2c1-c1ccc(OC)c(OC)c1` [Example 66, ethyl 6,7-dimethoxy-4-(3,4-dimethoxyphenyl)-2-[(pyrido[1,2-a][1,3,4]triazol-5-yl)thiomethyl]quinoline-3-carboxylate], for which, in data set [2], the “Inhibitory rate (%)” value is recorded as 58%.

Regarding `CCOC(=O)c1c(CSc2nccn2C)nc2cc(OC)c(OC)cc2c1-c1ccc2c(c1)OCO2` [Example 69, ethyl 6,7-dimethoxy-4-(3,4-methylenedioxyphenyl)-2-[(1-methylimidazol-2-yl)thiomethyl]quinoline-3-carboxylate], in the data set on Rat Adjuvant Arthritis, the change in vivo at 50 mg/kg amounted to 17% and the inhibition in vivo at 50 mg/kg turned out to be 63%.

For `CCOC(=O)c1c(CSc2nccn2C)nc2cc(OCC)c(OCC)cc2c1-c1ccc(OC)c(OC)c1` [Example 72, ethyl 6,7-diethoxy-4-(3,4-dimethoxyphenyl)-2-[(1-methylimidazol-2-yl)thiomethyl]quinoline-3-carboxylate], in the data set with Rat Adjuvant Arthritis, the change in vivo at 50 mg/kg amounted to 27% and the inhibition in vivo at 50 mg/kg was 50%.

In the case of `CCOC(=O)c1c(CCc2nccn2C)nc2cc(OC)c(OC)cc2c1-c1ccc(OC)c(OC)c1` [Example 87, ethyl 6,7-dimethoxy-4-(3,4-dimethoxyphenyl)-2-[2-(1-methylimidazol-2-yl)ethyl]quinoline-3-carboxylate], in the data set with Rat Adjuvant Arthritis, the change in vivo at 50 mg/kg amounted to 27% and the inhibition in vivo at 50 mg/kg turned out to be 75%.

Regarding `COc1ccc(-c2nc(CCc3nccn3C)nc3cc(OC)c(OC)cc23)cc1OC` [Example 88, 6,7-dimethoxy-4-(3,4-dimethoxyphenyl)-2-[2-(1-methylimidazol-2-yl)ethyl]quinazoline], in the data set on Rat Adjuvant Arthritis, the change in vivo at 50 mg/kg amounted to 24% and the inhibition in vivo at 50 mg/kg was 62%.
